According to patent US20230233569A1 (Revolution Medicines, Inc., priority 2020, published 2023):
“And” between values parts separate entries of the source, which are not always exact repeats. Equal entries are not always repeated.

Legend:
KRAS G13C [1] = target: T1, KRAS G13C (Homo sapiens, UniProt P01116+P62937, G13C); test: Disruption of BRAF RBD interaction with Ras (FRET / MOA assay, with Cyclophilin A); format: biochemical; settings: KRAS G13C; read-out: KRAS G13C FRET data IC50
Summary of the method: (§1)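 TR-FRET: nucleotide-loaded K-Ras mutant or WT with Cyclophilin A and BRAF RBD, compound 10-point 3-fold from 30 μM final, 3 h at 25° C, then anti-His Eu (10 nM) and anti-GST APC (50 nM) for 1.5 h. Decreased FRET ratio versus DMSO gives IC50.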
Target sequence in this assay (P01116 1-169 isoform P01116-2 G13C): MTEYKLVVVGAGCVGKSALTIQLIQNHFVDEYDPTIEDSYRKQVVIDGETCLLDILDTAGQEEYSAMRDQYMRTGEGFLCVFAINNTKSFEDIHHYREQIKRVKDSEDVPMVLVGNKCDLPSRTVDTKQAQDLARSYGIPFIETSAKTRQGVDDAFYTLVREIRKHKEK
Target sequence in this assay (P62937 whole entry): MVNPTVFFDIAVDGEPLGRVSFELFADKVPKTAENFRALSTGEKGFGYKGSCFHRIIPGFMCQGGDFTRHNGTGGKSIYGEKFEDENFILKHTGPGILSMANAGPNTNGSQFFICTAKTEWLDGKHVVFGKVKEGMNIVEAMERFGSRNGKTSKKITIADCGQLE

KRAS G12D [2] = target: T2, KRAS G12D (Homo sapiens, UniProt P01116+P62937, G12D); test: as above; format: biochemical; settings: read-out: KRAS G12D FRET data, IC50
T2 sequence (P01116 1-169 isoform P01116-2 G12D limits assumed): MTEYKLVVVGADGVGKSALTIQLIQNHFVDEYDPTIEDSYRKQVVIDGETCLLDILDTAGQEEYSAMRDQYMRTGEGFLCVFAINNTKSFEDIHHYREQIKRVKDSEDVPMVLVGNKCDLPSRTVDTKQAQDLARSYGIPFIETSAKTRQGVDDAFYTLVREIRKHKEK
T2 sequence (P62937 whole entry): as the sequence (P62937 whole entry) above
Summary of the method: as §1

KRAS G12S [3] = target: T3, KRAS G12S (Homo sapiens, UniProt P01116+P62937, G12S); test: as above; format: biochemical; settings: read-out: KRAS G12S FRET data, IC50
T3 sequence (P01116 1-169 isoform P01116-2 G12S limits assumed): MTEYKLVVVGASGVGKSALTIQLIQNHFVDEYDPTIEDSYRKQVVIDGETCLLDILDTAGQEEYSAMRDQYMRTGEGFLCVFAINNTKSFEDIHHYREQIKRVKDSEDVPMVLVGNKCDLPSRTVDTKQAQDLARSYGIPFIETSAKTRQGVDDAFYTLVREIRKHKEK
T3 sequence (P62937 whole entry): as the sequence (P62937 whole entry) above
Summary of the method: as §1

KRAS G13D [4] = target: T4, KRAS G13D (Homo sapiens, UniProt P01116+P62937, G13D); test: as above; format: biochemical; settings: KRAS G13D; read-out: KRAS G13D FRET data IC50
T4 sequence (P01116 1-169 isoform P01116-2 G13D limits assumed): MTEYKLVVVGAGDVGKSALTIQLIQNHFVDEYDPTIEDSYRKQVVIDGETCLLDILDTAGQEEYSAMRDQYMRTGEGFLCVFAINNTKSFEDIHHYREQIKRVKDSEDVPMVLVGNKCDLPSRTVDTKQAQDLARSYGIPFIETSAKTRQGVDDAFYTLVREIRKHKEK
T4 sequence (P62937 whole entry): as the sequence (P62937 whole entry) above
Summary of the method: as §1

KRAS G12C [5] = target: T5, KRAS G12C (Homo sapiens, UniProt P01116+P62937, G12C); test: as above; format: biochemical; settings: KRAS G12C; read-out: KRAS G12C FRET data IC50
Summary of the method: as §1
Target sequence in this assay (P01116 1-169 isoform P01116-2 G12C): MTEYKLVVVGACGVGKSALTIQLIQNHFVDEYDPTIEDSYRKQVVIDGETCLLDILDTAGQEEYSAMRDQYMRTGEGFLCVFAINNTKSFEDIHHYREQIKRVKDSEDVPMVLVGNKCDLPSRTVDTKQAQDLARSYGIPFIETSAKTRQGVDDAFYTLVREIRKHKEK
Target sequence in this assay (P62937 whole entry): as the sequence (P62937 whole entry) above

KRAS WT [6] = target: T6, KRAS WT (Homo sapiens, UniProt P01116+P62937); test: as above; format: biochemical; settings: KRAS WT; read-out: KRAS WT FRET data IC50
T6 sequence (P01116 1-169 isoform P01116-2 limits assumed): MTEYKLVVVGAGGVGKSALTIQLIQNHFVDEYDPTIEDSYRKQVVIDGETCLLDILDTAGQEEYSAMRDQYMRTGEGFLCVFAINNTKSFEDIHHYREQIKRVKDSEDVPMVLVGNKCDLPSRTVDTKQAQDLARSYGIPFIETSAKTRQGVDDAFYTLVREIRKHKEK
T6 sequence (P62937 whole entry): as the sequence (P62937 whole entry) above
Summary of the method: as §1

KRAS G12V [7] = target: T7, KRAS G12V (Homo sapiens, UniProt P01116+P62937, G12V); test: as above; format: biochemical; settings: KRAS G12V; read-out: KRAS G12V FRET data IC50
T7 sequence (P01116 1-169 isoform P01116-2 G12V limits assumed): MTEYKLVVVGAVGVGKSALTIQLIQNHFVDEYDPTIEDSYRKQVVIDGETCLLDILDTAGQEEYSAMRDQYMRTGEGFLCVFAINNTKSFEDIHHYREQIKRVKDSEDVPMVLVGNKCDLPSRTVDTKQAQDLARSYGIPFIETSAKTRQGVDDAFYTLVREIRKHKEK
T7 sequence (P62937 whole entry): as the sequence (P62937 whole entry) above
Summary of the method: as §1

NRAS G12C [8] = target: T8, NRAS G12C (Homo sapiens, UniProt P01111+P62937, G12C); test: as above; format: biochemical; settings: NRAS G12C; read-out: NRAS G12C FRET data IC50
T8 sequence (P01111 whole entry G12C): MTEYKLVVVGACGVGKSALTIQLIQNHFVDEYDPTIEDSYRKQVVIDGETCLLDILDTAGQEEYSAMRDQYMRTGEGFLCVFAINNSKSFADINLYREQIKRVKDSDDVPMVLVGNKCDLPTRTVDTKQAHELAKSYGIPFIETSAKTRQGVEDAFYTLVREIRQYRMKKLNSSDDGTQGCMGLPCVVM
T8 sequence (P62937 whole entry): as the sequence (P62937 whole entry) above

[9] = system: K-Ras G12C (NCI-H358 cells); test: Potency assay: pERK (AlphaLISA SureFire or In-Cell Western); format: cell-based; settings: Homo sapiens, NCI-H358; H358 KRAS G12C; read-out: pERK EC50
Method: (§2) The purpose of this assay is to measure the ability of test compounds to inhibit K-Ras in cells. […] This procedure measures a decrease in cellular pERK in response to test compounds.
(§3) NCI-H358 cells were grown and maintained using media and procedures recommended by the ATCC. On the day prior to compound addition, cells were plated in 384-well cell culture plates (40 μl/well) and grown overnight in a 37° C., 5% CO2 incubator. Test compounds were prepared in 10, 3-fold dilutions in DMSO, with a high concentration of 10 mM. On the day of assay, 40 nL of test compound was added to each well of cell culture plate using an Echo550 liquid handler (LabCyte®). Concentrations of test compound were tested in duplicate. After compound addition, cells were incubated 4 hours at 37° C., 5% CO2. Following incubation, culture medium was removed and cells were washed once with phosphate buffered saline.
(§4) In some experiments, cellular pERK level was determined using the AlphaLISA SureFire Ultra p-ERK1/2 Assay Kit (PerkinElmer). Cells were lysed in 25 μL lysis buffer, with shaking at 600 RPM at room temperature. […] After a 2-hour incubation in the dark, 5 μL donor mix was added, plate was sealed, and incubated 2 hours at room temperature. Signal was read on an Envision plate reader (PerkinElmer) using standard AlphaLISA settings. Analysis of raw data was carried out in Excel (Microsoft) and Prism (GraphPad). Signal was plotted vs. the decadal logarithm of compound concentration, and IC50 was determined by fitting a 4-parameter sigmoidal concentration response model.
In other experiments, cellular pERK was determined by In-Cell Western. […] Fixed cells were washed 4 times for 5 minutes with TBS containing 0.1% Triton X-100 (TBST) and then blocked with 100 μL Odyssey blocking buffer (LI-COR) for 60 minutes at room temperature. […] Cells were washed 4 times for 5 minutes with TBST. Secondary antibody (IR-800CW rabbit, LI-COR, diluted 1:800) and DNA stain DRAQ5 (LI-COR, diluted 1:2000) were added and incubated 1-2 hours at room temperature. Cells were washed 4 times for 5 minutes with TBST. Plates were scanned on a LI-COR Odyssey CLx Imager. Analysis of raw data was carried out in Excel (Microsoft) and Prism (GraphPad). Signal was plotted vs. the decadal logarithm of compound concentration, and IC50 was determined by fitting a 4-parameter sigmoidal concentration response model.
as §2
as §3, with “mM. On day of” for “mM. On the day of”, “assay, 40 nl of test” for “assay, 40 nL of test”
as §4, with “μl” for “μL”, “sealed” for “sealed,”

KRAS Q61H = KRAS Q61H (Homo sapiens, UniProt P01116+P62937, Q61H); test: Ras-Raf disruption / FRET / MOA assay (BRAF RBD); format: biochemical; settings: KRAS Q61H; read-out: KRAS Q61H FRET data IC50
KRAS Q61H, sequence (P01116 1-169 isoform P01116-2 Q61H limits assumed): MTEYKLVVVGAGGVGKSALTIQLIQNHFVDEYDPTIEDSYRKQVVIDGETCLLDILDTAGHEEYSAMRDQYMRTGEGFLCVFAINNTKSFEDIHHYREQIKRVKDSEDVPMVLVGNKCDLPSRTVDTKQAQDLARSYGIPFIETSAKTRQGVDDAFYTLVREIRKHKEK
KRAS Q61H, sequence (P62937 whole entry): as the sequence (P62937 whole entry) above
Summary of the method: (§5)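 TR-FRET in 25 mM HEPES pH 7.3, 100 mM NaCl, 5 mM MgCl2, 0.1% BSA, 0.002% Tween20 with 25 μM Cyclophilin A, 12.5 nM His6-Ras-GMPPNP, 50 nM GST-BRAF RBD; compound 10-point 3-fold series from 30 μM. After 3 h at 25 °C, Eu anti-His/APC anti-GST added for 1.5 h; IC50 from ratio decrease versus DMSO.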

KRAS G13C [10] = target: T1, KRAS G13C; test: Ras-Raf disruption / FRET / MOA assay (BRAF RBD); format: biochemical; settings: Ras-Raf disruption, with Cyclophilin A; read-out: KRAS G13C FRET data IC50
Summary of the method: as §5
Target sequence in this assay (P01116 1-169 isoform P01116-2 G13C limits assumed): as the sequence (P01116 1-169 isoform P01116-2 G13C) above
Target sequence in this assay (P62937 whole entry): as the sequence (P62937 whole entry) above

KRAS G12D [11] = target: T2, KRAS G12D; test: Ras-Raf disruption / FRET / MOA assay (BRAF RBD); format: biochemical; settings: Ras-Raf disruption, with Cyclophilin A; read-out: KRAS G12D FRET data IC50
Summary of the method: as §5

NRAS Q61R = NRAS Q61R (Homo sapiens, UniProt P01111+P62937, Q61R); test: Ras-Raf disruption / FRET / MOA assay (BRAF RBD); format: biochemical; settings: NRAS Q61R; read-out: NRAS Q61R FRET data IC50
NRAS Q61R, sequence (P01111 whole entry Q61R): as the sequence (P01111 whole entry G12C) above, with C12G, Q61R counted along it
NRAS Q61R, sequence (P62937 whole entry): as the sequence (P62937 whole entry) above
Summary of the method: as §5

NRAS Q61K = NRAS Q61K (Homo sapiens, UniProt P01111+P62937, Q61K); test: Ras-Raf disruption / FRET / MOA assay (BRAF RBD); format: biochemical; settings: NRAS Q61K; read-out: NRAS Q61K FRET data IC50
NRAS Q61K, sequence (P01111 whole entry Q61K): as the sequence (P01111 whole entry G12C) above, with C12G, Q61K counted along it
NRAS Q61K, sequence (P62937 whole entry): as the sequence (P62937 whole entry) above
Summary of the method: as §5

KRAS G12S [12] = target: T3, KRAS G12S; test: Ras-Raf disruption / FRET / MOA assay (BRAF RBD); format: biochemical; settings: Ras-Raf disruption, with Cyclophilin A; read-out: KRAS G12S FRET data IC50
Summary of the method: as §5

KRAS G13D [13] = target: T4, KRAS G13D; test: Ras-Raf disruption / FRET / MOA assay (BRAF RBD); format: biochemical; settings: Ras-Raf disruption, with Cyclophilin A; read-out: KRAS G13D FRET data IC50
Summary of the method: as §5

KRAS WT [14] = target: T6, KRAS WT; test: Ras-Raf disruption / FRET / MOA assay (BRAF RBD); format: biochemical; settings: Ras-Raf disruption, with Cyclophilin A; read-out: KRAS WT FRET data IC50
Summary of the method: as §5

KRAS G12V [15] = target: T7, KRAS G12V; test: Ras-Raf disruption / FRET / MOA assay (BRAF RBD); format: biochemical; settings: Ras-Raf disruption, with Cyclophilin A; read-out: KRAS G12V FRET data IC50
Summary of the method: as §5

NRAS WT = NRAS WT (Homo sapiens, UniProt P01111+P62937); test: Ras-Raf disruption / FRET / MOA assay (BRAF RBD); format: biochemical; settings: NRAS WT; read-out: NRAS WT FRET data IC50
NRAS WT, sequence (P01111 whole entry): as the sequence (P01111 whole entry G12C) above, with C12G counted along it
NRAS WT, sequence (P62937 whole entry): as the sequence (P62937 whole entry) above
Summary of the method: as §5

NRAS G12C [16] = target: T8, NRAS G12C; test: Ras-Raf disruption / FRET / MOA assay (BRAF RBD); format: biochemical; settings: NRAS G12C; read-out: NRAS G12C FRET data IC50
Summary of the method: as §5

KRAS G12C [17] = target: T5, KRAS G12C; test: Ras-Raf disruption / FRET / MOA assay (BRAF RBD); format: biochemical; settings: Ras-Raf disruption, with Cyclophilin A; read-out: KRAS G12C FRET data IC50
Summary of the method: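 His6-K-Ras G12C-GMPPNP (12.5 nM), GST-BRAF RBD (50 nM) and tagless Cyclophilin A (25 μM) incubated 3 h at 25 °C with compound (10-point 3-fold series from 30 μM), pH 7.3 HEPES buffer. Anti-His Eu/anti-GST APC added for 1.5 h; decreased TR-FRET ratio vs DMSO gives IC50.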
Target sequence in this assay (P01116 1-169 isoform P01116-2 G12C limits assumed): as the sequence (P01116 1-169 isoform P01116-2 G12C) above
Target sequence in this assay (P62937 whole entry): as the sequence (P62937 whole entry) above

Row | SMILES | IC50 (KRAS G13C [1]) | IC50 (KRAS G12D [2]) | IC50 (KRAS G12S [3]) | IC50 (KRAS G13D [4]) | IC50 (KRAS G12C [5]) | IC50 (KRAS WT [6]) | IC50 (KRAS G12V [7]) | IC50 (NRAS G12C [8]) | EC50 [9] | also measured
1 | C=CC(=O)N1CC[C@H](C(=O)N(C)[C@H](C(=O)N[C@H]2Cc3cc(O)cc(c3)-c3ccc4c(c3)c(c(-c3ccc5c(c3)CN(C)C5)n4CC)CC(C)(C)COC(=O)[C@@H]3CCCN(N3)C2=O)C(C)C)C1 [Example A212] | 1 to 10 µM and > 10 µM | > 10 µM | 1 to 10 µM and > 10 µM | 1 to 10 µM and > 10 µM | 0.1 to 1 µM and 1 to 10 µM | 1 to 10 µM and > 10 µM | 1 to 10 µM and > 10 µM | 0.1 to 1 µM and 1 to 10 µM | < 5 µM | –
2 | C=CC(=O)N1CCC(C(=O)N(C)C(C(=O)NC2Cc3nc(cs3)-c3ccc4c(c3)c(c(-c3cccnc3C(C)OC)n4CC)CC(C)(C)COC(=O)C3CCCN(N3)C2=O)C(C)C)C1 (stereo not drawn) [Example A279] | 1 µM to 10 µM and > 10 µM (2×) | > 10 µM | > 10 µM | > 10 µM | 1 µM to 10 µM and > 10 µM (2×) | > 10 µM | > 10 µM | 1 µM to 10 µM and > 10 µM (2×) | < 5 µM | –
3 | C=CC(=O)N1CC(OC[C@H](C(=O)N[C@H]2Cc3cccc(c3)-c3ccc4c(c3)c(c(-c3cccnc3[C@H](C)OC)n4CC)CC(C)(C)COC(=O)[C@@H]3CCCN(N3)C2=O)C(C)C)C1 (racemic) [Example A483] | 1 to 10 µM | > 10 µM | > 10 µM | > 10 µM | 0.1 to 1 µM | 1 to 10 µM | 1 to 10 µM | 0.1 to 1 µM | < 5 µM | –
4 | CCn1c(-c2cccnc2[C@H](C)OC)c2c3cc(ccc31)-c1csc(n1)C[C@H](NC(=O)[C@H](C(C)C)N(C)C(=O)N1CCC[C@H](N(C)C(=O)[C@@H]3CN3)C1)C(=O)N1CCC[C@H](N1)C(=O)OCC(C)(C)C2 (atropisomer, axis not shown) [Example 292] | – | – | – | – | – | – | – | – | – | IC50 (KRAS Q61H): 0.1 to 1 µM; IC50 (KRAS G13C [10]): 0.1 to 1 µM; IC50 (KRAS G12D [11]): 1 to 10 µM; IC50 (NRAS Q61R): 0.1 to 1 µM; IC50 (NRAS Q61K): 0.1 to 1 µM; IC50 (KRAS G12S [12]): 0.1 to 1 µM; IC50 (KRAS G13D [13]): 1 to 10 µM; IC50 (KRAS WT [14]): 0.1 to 1 µM; IC50 (KRAS G12V [15]): 0.1 to 1 µM; IC50 (NRAS WT): 0.1 to 1 µM; IC50 (NRAS G12C [16]): 0.1 to 1 µM; IC50 (KRAS G12C [17]): 0.1 to 1 µM
